According to BindingDB's records for patent US11780849 (Volastra Therapeutics, 2023):
pIC50: −log10 of the molar value.

Molecular target: T1, Ectonucleotide pyrophosphatase/phosphodiesterase family member 1 (Homo sapiens, UniProt P22413)
T1 sequence (P22413 whole entry): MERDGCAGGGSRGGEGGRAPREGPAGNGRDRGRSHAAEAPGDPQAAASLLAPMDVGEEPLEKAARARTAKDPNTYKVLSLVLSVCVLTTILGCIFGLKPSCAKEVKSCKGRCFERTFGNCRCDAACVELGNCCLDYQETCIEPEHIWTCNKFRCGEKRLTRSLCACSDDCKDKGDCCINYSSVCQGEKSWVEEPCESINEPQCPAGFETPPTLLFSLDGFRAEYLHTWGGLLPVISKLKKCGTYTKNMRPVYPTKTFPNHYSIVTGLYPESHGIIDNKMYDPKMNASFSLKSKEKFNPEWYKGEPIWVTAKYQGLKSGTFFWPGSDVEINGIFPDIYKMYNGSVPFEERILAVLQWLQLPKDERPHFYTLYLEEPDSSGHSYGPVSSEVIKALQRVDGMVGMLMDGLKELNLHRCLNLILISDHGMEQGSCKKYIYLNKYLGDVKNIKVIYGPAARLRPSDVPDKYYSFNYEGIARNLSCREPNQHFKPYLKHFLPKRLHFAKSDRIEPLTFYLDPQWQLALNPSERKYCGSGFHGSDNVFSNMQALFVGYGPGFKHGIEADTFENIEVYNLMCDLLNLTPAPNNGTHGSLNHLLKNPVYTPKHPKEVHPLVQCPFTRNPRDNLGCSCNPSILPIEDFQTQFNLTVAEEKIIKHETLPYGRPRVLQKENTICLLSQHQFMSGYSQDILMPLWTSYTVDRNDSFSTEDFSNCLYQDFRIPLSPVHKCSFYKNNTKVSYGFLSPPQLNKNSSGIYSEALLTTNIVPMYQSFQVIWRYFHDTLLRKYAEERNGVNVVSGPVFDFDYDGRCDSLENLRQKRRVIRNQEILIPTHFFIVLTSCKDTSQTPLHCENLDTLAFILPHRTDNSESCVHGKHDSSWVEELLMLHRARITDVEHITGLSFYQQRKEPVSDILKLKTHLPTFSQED
Experiment: Inhibition of ENPP1 Hydrolysis of 2′,3′-cGAMP
Description: Assay 1: Test compounds were plated in a 3 dilution scheme in a 384 well plate. […] AMP Detection solution (100 μL) was added to each well, the plate centrifuged and incubated for 60 min. Luminescence was measured with an Envision plate reader, and % Inhibition was calculated for each well as: (([max−min]−[test−min])/[max−min].

Structure (SMILES) | pIC50
COc1ccc2nccc(Oc3ccc(S(C)(=N)=O)cc3)c2n1 (configuration not stated) [US11780849, Compound 130] | < 6.00
COc1cccc2c(OCc3ccc(S(C)(=N)=O)cc3)ccnc12 (configuration not stated) [US11780849, Compound 134] | < 6.00
COc1ccc2c(OCc3ccc(S(C)(=N)=O)cc3F)ccnc2c1 (configuration not stated) [US11780849, Compound 135] | > 8.00
COc1cc2nncc(N3CCC(CCS(C)(=N)=O)CC3)c2cc1OC (configuration not stated) [US11780849, Compound 151] | > 8.00
COc1cc2nccc(-c3ccc4c(c3)CN(S(C)(=N)=O)CC4)c2cc1OC (configuration not stated) [US11780849, Compound 161] | > 8.00

Now from value to molecule:

pIC50 | Structure (SMILES)
> 8.00 | COc1cc2nccc(N3CCC(CCS(C)(=N)=O)CC3)c2cc1Cl (configuration not stated) [US11780849, Compound 141]
> 8.00 | COc1cc2nccc(N3CCC(CCS(C)(=N)=O)CC3)c2cc1F (configuration not stated) [US11780849, Compound 150]
